According to ChEMBL document CHEMBL1201862, “PubChem BioAssay data set” (2004):
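Grown in 96-well plates, cells were treated for 48 hours with each compound at five concentrations. Insufficient inhibition: endpoint recorded as highest concentration tested. The concentration for 50% growth inhibition is given as GI50.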 Calls of active or inactive are those of the source. Cut-off read from the data, not from the text of the source: active = GI50 up to about 1.1 µM and inactive = higher.

Columns and labels:
Test in all cases: inhibition of tumour cell growth, NCI panel, 48 h
[1] = system: 786-0
[2] = system: A549
[3] = system: BT-549
[4] = system: DU-145
[5] = system: HOP-62
[6] = system: HOP-92
[7] = system: HT-29
[8] = system: Hs-578T
[9] = system: LOX IMVI
[10] = system: NCI-H23
[11] = system: NCI-H460
[12] = system: OVCAR-3
[13] = system: OVCAR-8
[14] = system: RXF 393
[15] = system: SF-268
[16] = system: SK-MEL-28
[17] = system: SK-MEL-2
[18] = system: SK-MEL-5
[19] = system: SN12C
[20] = system: SNB-75

Measured: GI50

COC(=O)C(Cc1c(C2Nc3ccccc3C2CC(NC(C)=O)C(=O)OC)[nH]c2ccccc12)NC(C)=O (stereo not given)
inactive: [1] > 100 µM | [2] > 100 µM | [3] > 100 µM | [4] > 100 µM | [5] > 100 µM | [6] > 100 µM | [7] > 100 µM | [8] > 100 µM | [9] > 100 µM | [10] > 100 µM | [11] > 100 µM | [12] > 100 µM | [13] > 100 µM | [14] > 100 µM | [15] > 100 µM | [16] > 100 µM | [17] > 100 µM | [18] > 100 µM | [19] > 100 µM | [20] > 100 µM

O=[N+]([O-])c1ccc(Cc2nc3cc4ccccc4cc3[nH]2)cc1C(F)(F)F
inactive: [1] 12.7 µM | [2] 13.9 µM | [3] 18.2 µM | [4] 22.1 µM | [5] 13.8 µM | [6] 14.9 µM | [7] 14.3 µM | [8] 11.6 µM | [9] 18.5 µM | [10] 12.5 µM | [11] 7.82 µM | [12] 10.7 µM | [13] 19 µM | [14] 13.2 µM | [15] 13.6 µM | [16] 24.2 µM | [17] 20 µM | [18] 10.7 µM | [19] 18.7 µM | [20] 14.9 µM

CCC1NC(=O)C(NC(=O)c2ncccc2O)C(C)OC(=O)C(c2ccccc2)NC(=O)C2CC(=O)CCN2C(=O)C(Cc2ccccc2)N(C)C(=O)C2CCCN2C1=O (stereo not given)
inactive: [1] > 100 µM | [2] > 100 µM | [3] > 100 µM | [4] > 100 µM | [5] > 100 µM | [6] > 100 µM | [7] > 100 µM | [8] > 100 µM | [9] > 100 µM | [10] > 100 µM | [11] > 100 µM | [12] > 100 µM | [13] > 100 µM | [14] > 100 µM | [15] > 100 µM | [16] > 100 µM | [17] > 100 µM | [18] > 100 µM | [19] > 100 µM | [20] > 100 µM
